# Results reported in US5834318A, “Screening of combinatorial peptide libraries for selection of peptide ligand useful in affinity purification of target proteins” (Bayer Corporation, priority 1995, dated 1998).
# Where no end group is shown, it is not given here.
# Assays:
# Factor IX zymogen [1] = target: T1, Factor IX zymogen (Homo sapiens, UniProt P00740); assay: Plasma-derived Factor IX affinity chromatography; format: binding; set-up: A 1.0 ml injection of human citrated plasma was contacted with an acetyl-YANKGY-TSK column; from tissue; host or cells: human citrated plasma; conditions: 1.0 ml human citrated plasma
# T1 sequence (P00740 29-461 limits assumed): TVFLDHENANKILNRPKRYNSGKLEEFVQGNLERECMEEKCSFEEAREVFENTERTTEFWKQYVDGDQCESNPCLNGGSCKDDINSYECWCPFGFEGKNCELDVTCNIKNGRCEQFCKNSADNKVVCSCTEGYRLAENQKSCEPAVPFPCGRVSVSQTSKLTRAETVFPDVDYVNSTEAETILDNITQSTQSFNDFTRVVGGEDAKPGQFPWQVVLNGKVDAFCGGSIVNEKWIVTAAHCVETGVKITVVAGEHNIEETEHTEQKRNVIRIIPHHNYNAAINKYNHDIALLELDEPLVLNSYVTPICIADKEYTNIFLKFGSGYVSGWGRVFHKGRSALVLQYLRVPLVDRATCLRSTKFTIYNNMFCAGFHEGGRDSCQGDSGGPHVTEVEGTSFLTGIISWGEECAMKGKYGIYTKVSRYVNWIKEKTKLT
# Procedure: (§1) Affinity Purification of Target Protein Affinity purification of target protein was used to assess the ability to purify proteins with the peptide sequences identified as being specific. […] The deprotected peptide-resin was dry packed into a blank column as described above and washed with 20 column volumes of 20% methanol/water, then 10 column volumes of Buffer A, and assayed by sequential 1.0 mL injections of 1) Buffer A blank, 2) 0.5% HSA, and 3) target protein in 0.5% HSA. Non-specifically bound proteins were washed off the column in a step gradient of 1.0M NaCl for two column volumes, and the target protein was eluted from the column in a weak acid solution.
# Plasma-Derived Factor IX Affinity Chromatography The relevance of this library-derived peptide ligand is to purify human Factor IX zymogen from unpurified human plasma. A 1.0 ml injection of human citrated plasma was contacted with an acetyl-YANKGY-TSK column in the manner taught in the above example. Flow through and acid peaks were collected on ice and immediately assayed for total protein, SDS-PAGE and Western blot analyses. […] Samples were normalized to total protein as described before. There are numerous protein bands in the starting material, the predominant being albumin. The Factor IX band is not visible in any fraction in the Commassie stained gel. […] With one pass over the YANKGY-TSK affinity column, analyzing total protein and by Western blot, the approximate purification was 200 fold from plasma.
# streptavidin = streptavidin (Streptomyces avidinii, UniProt P22629); conditions: well known in the art; cited from earlier work
# streptavidin, sequence (P22629 25-183, species assumed): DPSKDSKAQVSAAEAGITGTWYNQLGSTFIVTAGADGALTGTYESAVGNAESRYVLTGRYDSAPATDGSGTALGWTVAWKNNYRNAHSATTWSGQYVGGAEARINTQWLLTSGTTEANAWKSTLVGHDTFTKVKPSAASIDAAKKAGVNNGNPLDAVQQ
# [2] = target: T2, human serum albumin (HSA) (Homo sapiens, UniProt P02768); assay: Binding of carrier protein to peptide-resin column; conditions: 0.5% HSA; eluted by the salt wash, no peak during acid elution
# T2 construct: purchased Miles, Inc., Clayton, N.C
# T2 sequence (P02768 25-609): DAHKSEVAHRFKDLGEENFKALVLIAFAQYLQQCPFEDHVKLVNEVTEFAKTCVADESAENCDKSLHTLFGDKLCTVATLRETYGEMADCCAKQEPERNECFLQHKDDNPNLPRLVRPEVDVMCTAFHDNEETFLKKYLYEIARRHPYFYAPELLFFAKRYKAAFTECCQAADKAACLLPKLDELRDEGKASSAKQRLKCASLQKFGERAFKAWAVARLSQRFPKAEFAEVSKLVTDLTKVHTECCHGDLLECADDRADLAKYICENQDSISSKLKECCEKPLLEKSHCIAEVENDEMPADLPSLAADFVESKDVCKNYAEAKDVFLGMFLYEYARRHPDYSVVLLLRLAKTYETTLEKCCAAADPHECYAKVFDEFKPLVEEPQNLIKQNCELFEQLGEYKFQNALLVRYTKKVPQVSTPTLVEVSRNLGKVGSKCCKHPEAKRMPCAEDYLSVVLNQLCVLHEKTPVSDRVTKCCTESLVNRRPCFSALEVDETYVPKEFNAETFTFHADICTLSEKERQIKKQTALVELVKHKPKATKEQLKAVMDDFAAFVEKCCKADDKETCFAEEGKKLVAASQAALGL
# Procedure: as §1
# (§2) Factor IX/Albumin Affinity Purification The library-derived peptide identified above binds and purifies a mixture of a commercially available, highly purified Factor IX zymogen in a solution of human serum albumin. […] This peptide-resin was tested for its ability to bind Factor IX. […] However, this was eluted by the salt wash as evidenced by the absence of a peak during the acid elution. In contrast, when Factor IX was added to the HSA, there was a distinct peak eluted by the acid.
# Factor IX zymogen [3] = target: T1, Factor IX zymogen; assay: Factor IX/albumin affinity purification on peptide-resin column; format: binding; set-up: purchased Enzyme Research Labs; South Bend, Ind
# Procedure: as §1, §2
# A direct correlation was seen between the acid peak area and the amount of Factor IX injected. […] Aliquots of fractions taken from this run were assayed for Factor IX detection by ELISA (data not shown). […] Factor IX may be partially denatured during the acid elution which could account for the lack of full recovery based on ELISA results. Indeed, controls of adding acid to Factor IX prior to analysis in the ELISA do show a 40 to 50% decrease in the ELISA signal. The remainder of the fractions were precipitated in cold (-20° C.) acetone and analyzed by reducing SDS-PAGE, normalizing sample to total protein.
# Factor IX zymogen [4] = target: T1, Factor IX zymogen; assay: Two color peptide library immunostaining chromatography of hexamer library; format: binding; set-up: purchased Enzyme Research Labs; South Bend, Ind; conditions: 6 beads isolated from two independent analyses
# Procedure: (§3) HPLC Library Immuno-Assays To differentiate between detecting reagent-binding and target-binding peptide-resin beads, we developed a two color peptide library staining chromatography technique. FIG. 1 is a schematic of the preferred embodiment of the technique. All assays were performed on an Ultrafast Microprotein Analyzer in a 2.1 mm I.D.×150mm long stainless steel column (volume=520 μL) at 37° C. Dry library resin was packed into the column by vacuum, then the column was attached to the detector flow cell and washed with 20 column volumes of 20% methanol/water, 5 column volumes of 100% Buffer A (10 mM HEPES, 100 mM NaCl, 2.5 mM CaCl2, 20 mg/mL D-mannitol; all from Sigma Chemical Co.; St. Louis, Mo.), then 5 column volumes of 50% Buffer B (Buffer A with 1.0M NaCl) to clean the resin. The complete assay comprised of seven chromatography injection programs sequentially linked and executed as a batch (EXChrom Chromatography Data System, Scientific Software, Inc.; San Ramon, Calif.). Each injection program was 90 min long. At the start of each injection program, a 1.0 mL sample loop of reagent was injected at 200 μL/min for 3.5 min, then allowed to perfuse the column at 5 μL/min for 50 min before the flow increased to 400/μL/min for the duration of the run. At 60-75 min, a salt gradient from 0.1M to 1.0M NaCl eluted non-specific binding proteins. […]
# RNase S protein = target: T3, RNase S protein (Bos taurus, UniProt P61823); assay: HPLC affinity chromatography validation on peptide-resin; format: binding; conditions: 42 nmoles RNase S protein injected; 2 % acetic acid wash, peak at 22 min
# T3 sequence (P61823 47-150 limits assumed): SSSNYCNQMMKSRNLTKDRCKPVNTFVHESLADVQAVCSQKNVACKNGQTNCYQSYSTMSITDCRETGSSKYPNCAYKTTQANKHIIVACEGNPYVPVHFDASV
# Procedure: as §1
# Ribonuclease S Protein Affinity Chromatography In this embodiment the HPLC affinity methodology is validated by the previously described RNase S protein/YNFEVL peptide system. Peptide synthesis was performed as taught in the previous section. […] 42 nmoles of RNase S protein was injected in a 1.0 mL volume onto the column at 200 μL/min for 3 min. The flow was decreased to 5 μL/min for 5 min to perfuse the column, then increased to 400 μL/min to wash off the unbound protein. At 13 min, an injection of 1.0 mL Buffer A with 1.0M NaCl eluted non-specific binding proteins, then the column was returned to 0.1M NaCl until 19 min when a steep gradient to 2 % acetic acid in water and a flow of 800 μL/min began. […]
# [5] = target: T4, Ribonuclease S (RNase S) protein (Bos taurus, UniProt P61823); assay: Two color peptide library immunostaining chromatography (HPLC library immunoassay), validation; format: binding; conditions: peptide-resin diluted 1:20 w/w with TSK-Blank
# T4 sequence (P61823 47-150 limits assumed): T3 sequence (P61823 47-150 limits assumed)
# Procedure: as §3
substance,measurement,setting,value
Ac-YANKGY [acetyl-YANKGY-TSK],Factor IX in acid peak by Western blot,Factor IX zymogen [1],a very large band in the acid peak
same,Factor IX in flow through by Western blot,Factor IX zymogen [1],no Factor IX in the flow through
HPQ,binding to streptavidin,streptavidin,will bind streptavidin
YANKGY [YANKGY-TSK],HSA binding to column,[2],bound to the column to a small extent
same,"Factor IX detected in NaCl peak by ELISA, % of amount injected",Factor IX zymogen [3]; 220 μg Factor IX in HSA,17%
same,"Factor IX detected in acid peak by ELISA, % of amount injected",Factor IX zymogen [3]; 220 μg Factor IX in HSA,25%
same,Factor IX detected in flow through peak by ELISA,Factor IX zymogen [3]; 220 μg Factor IX in HSA,No Factor IX was detected
same,Factor IX in NaCl wash and acid peak by Western blot,Factor IX zymogen [3]; 220 μg Factor IX in HSA,dark bands corresponding to Factor IX
same,Factor IX in flow-through fractions by Western blot,Factor IX zymogen [3]; 220 μg Factor IX in HSA,no detectable Factor IX
same,binding of Factor IX to peptide-resin,"Factor IX zymogen [3]; Factor IX in 0.5% HSA, acid elution",does bind Factor IX
same,approximate purification of Factor IX from plasma,"Factor IX zymogen [1]; one pass, by total protein and Western blot",~200 fold
same,bead staining in library immunoassay (red = target specific),Factor IX zymogen [4],red bead
YNFEVL [YNFEVL-TSK],elution of bound RNase S protein,RNase S protein,target protein eluted in the acid wash
same,frequency of dark blue beads (non-specific or immunoreagent-specific interactions),[5],less than 0.01%
same,frequency of red beads (target protein interacting with peptide-resin beads),[5]; RNase S protein in HSA carrier,5%
YNYFNQ,bead staining in library immunoassay (red = target specific),Factor IX zymogen [4],red bead
